pIC50: −log10 of the molar value. Read-outs that look alike come from different tables or passages of the source.
Columns and labels:
Aurora-A kinase = target: T1, Aurora-A kinase (Homo sapiens, UniProt O14965); assay: Caliper Mobility Shift assay for inhibitory activity against aurora kinase (Aurora-A); type: biochemical; details: FAM-labeled polypeptide substrate, 25° C.
T1 sequence (O14965 1-403): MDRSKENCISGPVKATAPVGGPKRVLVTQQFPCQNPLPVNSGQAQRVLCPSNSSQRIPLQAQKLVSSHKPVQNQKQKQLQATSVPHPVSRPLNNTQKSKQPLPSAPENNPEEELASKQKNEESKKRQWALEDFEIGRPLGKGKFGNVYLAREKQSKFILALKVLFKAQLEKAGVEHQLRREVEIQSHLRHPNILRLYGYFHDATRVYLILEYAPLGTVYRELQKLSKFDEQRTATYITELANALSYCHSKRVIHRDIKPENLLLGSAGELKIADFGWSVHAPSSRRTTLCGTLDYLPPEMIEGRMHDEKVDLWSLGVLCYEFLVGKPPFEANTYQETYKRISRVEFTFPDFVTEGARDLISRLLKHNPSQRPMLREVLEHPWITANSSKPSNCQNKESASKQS
Description: (§1) The compounds were each subjected to gradient dilution from 10 μM to obtain a total of 10 concentrations. After the enzyme and kinase reaction solution (20 mM HEPES, pH 7.5, 0.01% Triton X-100) were mixed, the gradiently diluted compound was added. The mixture was incubate at room temperature for 10 min to allow the compound and enzyme to bind well. Then, FAM-labeled polypeptide was added as a substrate to carry out a kinase reaction at 25° C., and after a certain time, a stop solution was added.

Aurora-B kinase = Aurora-B kinase (Homo sapiens, UniProt Q96GD4); assay: Caliper Mobility Shift assay for inhibitory activity against aurora kinase (Aurora-B); type: biochemical; details: FAM-labeled polypeptide substrate, 25° C.
Description: as §1

[1] = test system: human small cell lung cancer H69 cells; assay: Anti-proliferation activity against H69 cells (ATP content, 72 h); type: cell-based
Description: Tumor cells (human small cell lung cancer H69 cells) in logarithmic growth phase were seeded into a 384-well culture plate at 4×10^3 cells per well, 50 μL of medium was added to each well, and the mixtures were cultured overnight in a 37° C./5% CO2 incubator. After the cells adhered to the wall, the test compounds and the positive control drug at proper concentrations were each added, and five samples with different concentrations were prepared. A blank group was taken as a negative control group, and the resulting mixtures were cultured in an incubator for 72 h. 50 μL of CTL plus was then added to each well, and the number of cells was evaluated by measuring ATP content in the cells.

[2] = test system: Human lung cancer H69 cells graft tumors; assay: Anti-tumor activity in nude mice bearing H69 graft tumors; type: in vivo; details: for in vivo anti-tumor activity compared with the positive control LY-3295668: 20 mg/kg bid*21, H69 graft tumors in nude mice, statement in words; for Anti-tumor effect: 20 mg/kg, bid*21, intragastric, suspension in 0.5% CMC-Na, NCI-H69 graft tumors in nude mice
Description: 1×10^7 H69 cells were injected into the right dorsal side of each nude mouse, and the animals were randomly grouped for administration after tumors grew to 150 mm^3. […] On Tuesday and Thursday each week, tumor volumes and body weight of mice were measured, and the nude mice were sacrificed on day 21 of administration.

Aurora-B kinase, sequence (Q96GD4 whole entry): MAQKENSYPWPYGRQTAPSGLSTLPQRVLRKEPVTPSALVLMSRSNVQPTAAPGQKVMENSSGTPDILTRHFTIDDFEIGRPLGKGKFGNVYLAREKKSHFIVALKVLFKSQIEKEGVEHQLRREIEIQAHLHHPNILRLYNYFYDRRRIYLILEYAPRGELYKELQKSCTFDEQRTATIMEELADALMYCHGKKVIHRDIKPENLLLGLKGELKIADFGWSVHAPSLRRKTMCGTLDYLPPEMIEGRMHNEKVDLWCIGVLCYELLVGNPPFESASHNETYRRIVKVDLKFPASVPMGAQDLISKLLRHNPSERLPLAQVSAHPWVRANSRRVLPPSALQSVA

| Compound | IC50 (Aurora-A kinase) | IC50 (Aurora-B kinase) | pIC50 ([1]; Homo sapiens, NCI-H69, 72 h) | in vivo anti-tumor activity compared with the positive control LY-3295668 [2] | Anti-tumor effect [2] | pIC50 [1] |
| --- | --- | --- | --- | --- | --- | --- |
| COCC1CC(Cc2nc(Nc3nccs3)ccc2F)(C(=O)O)CCN1Cc1cccc(Cl)c1F (centres unmarked) [Compound 6, 1-(3-chloro-2-fluorobenzyl)-4-((3-fluoro-6-(thiazol-2-ylamino)pyridin-2-yl)methyl)-2-(methoxymethyl)piperidine-4-carboxylic acid] | 0.57 nM | 78 nM | 7.31 | significantly increased in vivo anti-tumor activity | 30% shrinking | – |
| CCC1CC(Cc2nc(Nc3cc(C)[nH]n3)ccc2F)(C(=O)O)CCN1Cc1cccc(Cl)c1F (centres unmarked) [Compound 19, 1-(3-chloro-2-fluorobenzyl)-2-ethyl-4-((3-fluoro-6-((5-methyl-1H-pyrazol-3-yl)amino)pyridin-2-yl)methyl)piperidine-4-carboxylic acid] | 3.1 nM | > 3000 nM | 6.66 | – | – | – |
| CCC1CC(Cc2nc(Nc3nccs3)ccc2F)(C(=O)O)CCN1Cc1cccc(Cl)c1F (centres unmarked) [Compound 5, 1-(3-chloro-2-fluorobenzyl)-2-ethyl-4-((3-fluoro-6-(thiazol-2-ylamino)pyridin-2-yl)methyl)piperidine-4-carboxylic acid] | 0.82 nM | 140 nM | – | – | 9% shrinking | 7.48 |
| COCC1CC(Cc2nc(Nc3ncc(C)s3)ccc2F)(C(=O)O)CCN1Cc1cccc(Cl)c1F (centres unmarked) [Compound 23, 1-(3-chloro-2-fluorobenzyl)-4-((3-fluoro-6-(5-methylthiazol-2-ylamino)pyridin-2-yl)methyl)-2-(methoxymethyl)piperidine-4-carboxylic acid] | 0.57 nM | 2470 nM | 7.24 | – | – | – |
| CCC1CC(Cc2nc(Nc3nccs3)ccc2F)(C(=O)O)CCN1Cc1cccc(Cl)c1F (centres unmarked) [Compound 29, 1-(3-chloro-2-fluorobenzyl)-2-ethyl-4-((3-fluoro-6-(thiazol-2-ylamino)pyridin-2-yl)methyl)piperidine-4-carboxylic acid] | 1.3 nM | 90 nM | 7.62 | – | – | – |
| CCOCC1CC(Cc2nc(Nc3nccs3)ccc2F)(C(=O)O)CCN1Cc1cccc(Cl)c1F (centres unmarked) [Compound 7, 1-(3-chloro-2-fluorobenzyl)-2-(ethoxymethyl)-4-((3-fluoro-6-(thiazol-2-ylamino)pyridin-2-yl)methyl)piperidine-4-carboxylic acid] | 0.74 nM | 286 nM | 7.28 | – | – | – |
| Cc1cc(Nc2ccc(F)c(CC3(C(=O)O)CCN(Cc4cccc(Cl)c4F)C(C(F)(F)F)C3)n2)n[nH]1 (centres unmarked) [Compound 15, 1-(3-chloro-2-fluorobenzyl)-4-((3-fluoro-6-((5-methyl-1H-pyrazol-3-yl)amino)pyridin-2-yl)methyl)-2-(trifluoromethyl)piperidine-4-carboxylic acid] | 0.62 nM | 1490 nM | 6.11 | – | – | – |
| Cc1cnc(Nc2ccc(F)c(CC3(C(=O)O)CCN(Cc4cccc(Cl)c4F)C(C(F)(F)F)C3)n2)s1 (centres unmarked) [Compound 13, 1-(3-chloro-2-fluorobenzyl)-4-((3-fluoro-6-(5-methylthiazol-2-ylamino)pyridin-2-yl)methyl)-2-(trifluoromethyl)piperidine-4-carboxylic acid] | 0.64 nM | 113 nM | 6.23 | – | – | – |
| COCC1CC(Cc2nc(Nc3cc(C)[nH]n3)ccc2F)(C(=O)O)CCN1Cc1cccc(Cl)c1F (centres unmarked) [Compound 25, 1-(3-chloro-2-fluorobenzyl)-4-((3-fluoro-6-((5-methyl-1H-pyrazol-3-yl)amino)pyridin-2-yl)methyl)-2-(methoxymethyl)piperidine-4-carboxylic acid] | 0.78 nM | > 3000 nM | 7.01 | – | – | – |
| O=C(O)C1(Cc2nc(Nc3nccs3)ccc2F)CCN(Cc2cccc(Cl)c2F)C(C(F)(F)F)C1 (centres unmarked) [Compound 1, 1-(3-chloro-2-fluorobenzyl)-4-((3-fluoro-6-(thiazol-2-ylamino)pyridin-2-yl)methyl)-2-(trifluoromethyl)piperidine-4-carboxylic acid] | 0.53 nM | 148 nM | 7.96 | significantly increased in vivo anti-tumor activity | 29% shrinking | – |
| O=C(O)C1(Cc2nc(Nc3nccs3)ccc2F)CCN(Cc2cccc(Cl)c2F)C(CF)C1 (centres unmarked) [Compound 11, 1-(3-chloro-2-fluorobenzyl)-4-((3-fluoro-6-(thiazol-2-ylamino)pyridin-2-yl)methyl)-2-(fluoromethyl)piperidine-4-carboxylic acid] | 2.4 nM | 128 nM | 7.72 | – | – | – |

From US12275726B2, “Aurora kinase inhibitors and use thereof” (WIGEN BIOMEDICINE TECHNOLOGY (SHANGHAI) CO., LTD., priority 2019, dated 2025)
